In PubChem BioAssay (NCI):
Several values for one entry are separate records, joined by “and”; a condition that tells them apart may be missing. Equal values may be shown once.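 Test compounds were applied to cells in 96-well plates for 48 hours at 5 doses. At the GI50, growth is halved. TGI is the concentration that stops growth completely.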

Columns and labels:
Experiment in all cases: DTP human tumour cell line panel, 48 h
[1] = tested on: ACHN renal
[2] = tested on: HCT-15 colon
[3] = tested on: HOP-62 NSCLC
[4] = tested on: HOP-92 NSCLC
[5] = tested on: LOX IMVI melanoma
[6] = tested on: MCF7 breast
[7] = tested on: PC-3 prostate
[8] = tested on: RXF 393 renal
[9] = tested on: SF-295 CNS
[10] = tested on: SK-OV-3 ovarian

Structure (SMILES)	GI50 [1]	TGI [1] [µM]	GI50 [2]	TGI [2] [µM]	GI50 [3]	TGI [3] [µM]	GI50 [4] [µM]	TGI [4] [µM]	GI50 [5]	TGI [5] [µM]	GI50 [6] [µM]	TGI [6] [µM]	GI50 [7]	TGI [7] [µM]	GI50 [8] [µM]	TGI [8] [µM]	GI50 [9]	TGI [9]	GI50 [10]	TGI [10] [µM]
COc1cc(-c2nn(-c3cccc(NC(=O)c4ccc(Cl)c(C(F)(F)F)c4)c3)cc2-c2ccncc2)ccc1Cl	1.91 µM	> 32.5	3.15 µM	> 32.5	6.5 µM	> 32.5	0.425	2.5	1.92 µM	> 32.5	1.82	> 32.5	0.798 µM	> 16.3	2.01	> 24.6	1.08 µM	8.19 µM	7.53 µM	> 32.5
CC[C@H](C)[C@H](NC(=O)[C@H]1CCCCN1C)C(=O)N(C)[C@H](C[C@@H](OC(C)=O)c1nc(C(=O)N[C@@H](Cc2ccccc2)C[C@H](C)C(=O)O)cs1)C(C)C	0.00481 µM and 0.00165 µM	> 16.5	0.00133 µM and 0.00165 µM	> 16.5	0.000909 µM and 0.00165 µM	> 16.5	7.24	> 16.5	0.000609 µM and 0.00165 µM	> 16.5		> 16.5	0.000339 µM and 0.00165 µM	> 16.5	0.00165	> 16.5	0.000305 µM and < 0.00165 µM	0.00282 µM and < 0.00165 µM	0.000807 µM and 0.00165 µM	
COc1cc2c3c(n(C)c(=O)c2cc1OC)-c1ccc(C#N)cc1C3=O	> 100 µM	> 100	> 100 µM	> 100	74.1 µM	> 100	> 100	> 100	> 100 µM	> 100	51.1	> 100	> 100 µM	> 100	> 100	> 100	73.7 µM	> 100 µM	> 100 µM	> 100
O=C1NC(=NCCCc2ccccc2)S/C1=C\c1ccc2ncccc2c1	5.08 µM	15.6	2.9 µM	> 25	5.79 µM	13.8	4.22	13.4	5.12 µM	14.6	4.11	11.2	5.62 µM	15.9	3.89	10.4	4.75 µM	> 17.5 µM	5.33 µM	12.2
CCN1CCN(C(=O)[C@]23CCC(C)(C)C[C@@H]2C2=CC[C@@H]4[C@@]5(C)C/C(=C/c6ccncc6)C(=O)C(C)(C)[C@@H]5CC[C@@]4(C)[C@]2(C)CC3)CC1	1.6 µM	2.95	1.25 µM	2.73	1.72 µM	3.3	1.07	2.39	1.4 µM	2.8	1.08	2.53	0.833 µM	2.2	1.45	2.81	1.43 µM	2.76 µM	2.1 µM	4.41
CCc1nc(N)nc(N)c1-c1ccc(N2CCNCC2)cc1		> 100		> 100		> 100		> 100		> 100		> 94.3		> 100		> 100		> 100 µM		> 100
COC(=O)[C@H]1CCCN1C(=O)[C@H]1CCCN1C(=O)[C@H](Cc1c[nH]c2ccccc12)NC(=S)Nc1cc(C(F)(F)F)cc(C(F)(F)F)c1	4.12 µM	> 100	6.26 µM	> 100	8.28 µM	> 100	1.7	6.97	3.19 µM	26.3	2.99	> 100	3.47 µM	> 100	1.84	4.71	2.77 µM	12.9 µM	92.7 µM	> 100
c1cc2c(cn1)Nc1ccncc1S2	26.8 µM	> 100	37.4 µM	> 100	14.9 µM	57.4	8.52	76.6	33.2 µM	> 100	32.9	> 100	41.7 µM	> 100	15.6	42.3	52.7 µM	> 100 µM	15.2 µM	80.6
O=C1/C=C/[C@@H](O)[C@@H]2C[C@@H](O)C[C@H]2/C=C/CCC[C@H](C(F)(F)F)O1	0.197 µM		0.32 µM	6.98	2.14 µM	> 100	0.126	0.568	0.137 µM	0.388	0.0896	0.813	0.502 µM	> 100	0.0864	38.7	> 27 µM	> 100 µM	16.4 µM	> 100
COc1ccc(/C(C#N)=C2C=C/C(=N/O)c3ccccc3\2)cc1	0.318 µM	15.4	0.168 µM	4.52	0.376 µM	16	0.39	6.96	0.382 µM	14.7	0.181	14.1	0.322 µM	15.7	0.437	20.6	0.687 µM	13 µM	0.301 µM	3.4
